Measurements from US20230174538A1, “Tricyclic heterocycles” (Merck Patent GmbH, priority 2020, published 2023).

system: YAP-TEAD interaction; assay: SK-HEP-1 reporter assay (8xTEAD responsive elements driving NanoLuc luciferase); assay type: cell-based; conditions: Homo sapiens, SK-HEP1, SK-HEP-1 reporter assay
Experimental: To identify inhibitors of YAP-TEAD interaction, 8×TEAD responsive elements driving the NanoLuc® luciferase gene were stably integrated into SK-HEP-1 cells (ECACC #: 91091816).
For the assay, cells were treated in duplicates with the test compounds in a 10-point dose, with the top concentration starting at 30 μM (final concentration in assay). After a 24 hour incubation at 37° C., 95% rH, and 5% CO2, a luciferase substrate/lysis reagent mix (NanoGlo™, Promega) was added to the cells, allowing the quantification of cellular luciferase activity.
Cell Media: The cells were cultured in the following media: MEM, +10% FBS, +1× GlutaMAX, +1 mM Sodium-Pyruvate, +100 μM Non-essential amino acids, +0.1 mg/ml Hygromycin. The media used for the assay was: MEM (w/o Phenol Red), +10% FBS, +1× GlutaMAX, +1 mM Sodium-Pyruvate, +100 μM Non-essential amino acids, +0.5% Pen/Strep
Reagents: The reagents used are listed below:
Cell culture: The cells were examined using an inverted microscope to check for health and cell density. To dissociate adherent cells, the monolayer of cells was washed once with pre-warmed PBS. After removing the PBS, 3 ml pre-warmed Accutase® was added to a F75 flask, dispersed evenly and the flask was allowed to sit in incubator for ˜4-5 minutes.
When a single cell suspension was obtained, 7 ml of prewarmed growth media was added and resuspended with the cells. The cell suspension was transferred to a sterile 15 ml conical centrifuge tube, and spun for 5 min at 300×g, RT. The supernatant was discarded and the pellet was resuspended in 10 ml of pre-warmed growth media.
The total cell count was determined, and 20 μl of the desired cell number was added to each well of a 384 well plate using a Multidrop Combi. The plates were then incubated for 24 hours at 37° C., 95% rH, and 5% CO2.
Compound treatment: 24 hours after seeding, the cells were treated with compounds.
A 1:333 dilution of compounds, diluted in DMSO, was made to get a final concentration of 0.3% DMSO per well. To transfer the compounds to the assay plate, 120 nl was shot from Labcyte low dead volume plates to the cell plates containing 20 μl media/well with the ECHO 555 liquid handling system.
After treatment, the cells were fed with 20 μl fresh pre-warmed assay media using a Multidrop combi.
The assay plates were then incubated for another 24 h at 37° C., 95% rH, and 5% CO2.
Luciferase readout: 24 h after treatment, the plates were taken out of the incubator and were allowed to equilibrate to RT. 30 μl of NanoGlo® reagent was added to the plates in the dark. Plates were shaken for 20 min on a Teleshake (˜1500 rpm) in the dark. The luminescence was then measured using an EnVision microplate reader. The IC50 values were generated using Genedata Screener®.

SMILES	IC50
CN1CCN(C(=O)c2ccc3c(c2)c2cn(C)nc2n3-c2ccc(C(F)(F)F)cc2)CC1CO (centres unmarked) [Example B65, (1-methyl-4-{2-methyl-8-[4-(trifluoromethyl)phenyl]-2H,8H-pyrazolo[3,4-b]indole-5-carbonyl}piperazin-2-yl)methanol]	> 10000 nM
CN(Cc1noc(C2CC2)n1)C(=O)c1ccc2c(c1)c1cn(C)nc1n2-c1ccc(C(F)(F)F)cc1 [B137^]	> 10000 nM
Cn1cc2c3cc(C(=O)NCCc4nncn4C4CC4)ccc3n(-c3ccc(C(F)(F)F)cc3)c2n1 [B110^]	> 10000 nM
Cn1cc2c3cc(C(=O)NC4(c5ncon5)CCC4)ccc3n(-c3ccc(C(F)(F)F)cc3)c2n1 [B117^]	10 to 100 nM
Cn1cc2c3cc(C(=O)N4CC(c5ocnc5CO)C4)ccc3n(-c3ccc(C(F)(F)F)cc3)c2n1 [Example B30, [5-(1-{2-methyl-8-[4-(trifluoro-methyl)phenyl]-2H,8H-pyrazolo[3,4-b]indole-5-carbonyl}azetidin-3-yl)-1,3-oxazol-4-yl]methanol]	> 10000 nM
CC(NC(=O)c1ccc2c(c1)c1cn(C)nc1n2-c1ccc(C(F)(F)F)cc1)c1ccc[nH]1 (centres unmarked) [Example B8, 2-methyl-N-[1-(1H-pyrrol-2-yl)ethyl]-8-[4-(trifluoromethyl)phenyl]-2H,8H-pyrazolo[3,4-b]indole-5-carboxamide]	100 to 10000 nM
Cn1cc2c3cc(C(=O)NC(C4CC4)C4COCCO4)ccc3n(-c3ccc(C(F)(F)F)cc3)c2n1 (centres unmarked) [B115^]	100 to 10000 nM
Cn1cc2c3cc(C(=O)NCCc4ocnc4CO)ccc3n(-c3ccc(C(F)(F)F)cc3)c2n1 [Example B67, N-{2-[4-(hydroxymethyl)-1,3-oxazol-5-yl]ethyl}-2-methyl-8-[4-(trifluoromethyl)phenyl]-2H,8H-pyrazolo[3,4-b]indole-5-carboxamide]	10 to 100 nM
COc1cc(C(C)NC(=O)c2ccc3c(c2)c2cn(C)nc2n3-c2ccc(C(F)(F)F)cc2)sn1 (centres unmarked) [Example B83, N-[1-(3-methoxy-1,2-thiazol-5-yl)ethyl]-2-methyl-8-[4-(trifluoromethyl)phenyl]-2H,8H-pyrazolo[3,4-b]indole-5-carboxamide]	100 to 10000 nM
Cc1nc(CCCNC(=O)c2ccc3c(c2)c2cn(C)nc2n3-c2ccc(C(F)(F)F)cc2)n[nH]1 [B121^]	100 to 10000 nM
Cn1cc2c3cc(C(=O)O)ccc3n(-c3ccc(Cl)cc3)c2n1 [Example 13, 8-(4-chlorophenyl)-2-methyl-2H,8H-pyrazolo[3,4-b]indole-5-carboxylic acid]	100 to 10000 nM
Cn1cc2c3cc(C(=O)NCCc4nc(C5CC5)n[nH]4)ccc3n(-c3ccc(C(F)(F)F)cc3)c2n1 [Example B28, N-[2-(3-cyclopropyl-1H-1,2,4-triazol-5-yl)ethyl]-2-methyl-8-[4-(trifluoro-methyl)phenyl]-2H,8H-pyrazolo[3,4-b]indole-5-carboxamide]	100 to 10000 nM
Cc1[nH]ncc1CCCNC(=O)c1ccc2c(c1)c1cn(C)nc1n2-c1ccc(C(F)(F)F)cc1 [B132^]	100 to 10000 nM
Cc1oc(C2CC2)nc1CNC(=O)c1ccc2c(c1)c1cn(C)nc1n2-c1ccc(C(F)(F)F)cc1 [Example B85, N-[(2-cyclopropyl-5-methyl-1,3-oxazol-4-yl)methyl]-2-methyl-8-[4-(trifluoromethyl)phenyl]-2H,8H-pyrazolo[3,4-b]indole-5-carboxamide]	1 to 10 nM
Cn1cc2c3cc(C(=O)O)ccc3n(Cc3cccc(C(F)(F)F)c3)c2n1 [Example 8, 2-Methyl-8-{[3-(trifluoromethyl)phenyl]methyl}-2H,8H-pyrazolo[3,4-b]indole-5-carboxylic acid]	100 to 10000 nM
Cn1cc2c3cc(C(=O)N4CCCC4c4ccc[nH]4)ccc3n(-c3ccc(C(F)(F)F)cc3)c2n1 (centres unmarked) [Example B13, 2-(1-{2-methyl-8-[4-(trifluoromethyl)-phenyl]-2H,8H-pyrazolo[3,4-b]indole-5-carbonyl}pyrrolidin-2-yl)-1H-pyrrole]	100 to 10000 nM
COCCC1CN(C(=O)c2ccc3c(c2)c2cn(C)nc2n3-c2ccc(C(F)(F)F)cc2)CCO1 (centres unmarked) [B111^]	> 10000 nM
COCC1CCN(C(=O)c2ccc3c(c2)c2cn(C)nc2n3-c2ccc(C(F)(F)F)cc2)C1 (centres unmarked) [Example B51, 3-(methoxymethyl)-1-{2-methyl-8-[4-(trifluoromethyl)phenyl]-2H,8H-pyrazolo[3,4-b]indole-5-carbonyl}pyrrolidine]	100 to 10000 nM

SMILES	IC50
Cn1cc2c3cc(C(=O)N4CC5(CCCC5)CC4CO)ccc3n(-c3ccc(C(F)(F)F)cc3)c2n1 (centres unmarked) [Example B10, (2-{2-methyl-8-[4-(trifluoromethyl)phenyl]-2H,8H-pyrazolo[3,4-b]indole-5-carbonyl}-2-azaspiro[4.4]nonan-3-yl)methanol]	100 to 10000 nM
Cn1cc2c3cc(C(=O)NCCCc4cc[nH]n4)ccc3n(-c3ccc(C(F)(F)F)cc3)c2n1 [B142^]	100 to 10000 nM
Cc1ccnn1CC(C)CNC(=O)c1ccc2c(c1)c1cn(C)nc1n2-c1ccc(C(F)(F)F)cc1 (centres unmarked) [B106^]	> 10000 nM
Cn1cc2c(n1)c1cc(S(C)(=O)=O)ccc1n2-c1ccc(C(F)(F)F)cc1 [Example 33, 7-methanesulfonyl-2-methyl-4-[4-(trifluoromethyl)phenyl]-2H,4H-pyrazolo[4,3-b]indole]	100 to 10000 nM
Cn1cc2c3cc(C(=O)NC4COCC4C4CC4)ccc3n(-c3ccc(C(F)(F)F)cc3)c2n1 (centres unmarked) [B133^]	10 to 100 nM
CO[C@H]1C[C@@H](CCO)N(C(=O)c2ccc3c(c2)c2cn(C)nc2n3-c2ccc(C(F)(F)F)cc2)C1 (single isomer, unassigned) [Example B4]	> 10000 nM
Cn1cc2c3cc(C(=O)N[C@@H]4COC5(CCC5)[C@H]4O)ccc3n(-c3ccc(C(F)(F)F)cc3)c2n1 (relative stereo) [Example B23, N-[(7R,8S)-8-hydroxy-5-oxaspiro[3.4]octan-7-yl]-2-methyl-8-[4-(trifluoromethyl)phenyl]-2H,8H-pyrazolo[3,4-b]indole-5-carboxamide]	100 to 10000 nM
Cn1cc2c3cc(C(=O)NC4CN(c5ccncn5)C4)ccc3n(-c3ccc(C(F)(F)F)cc3)c2n1 [B104^]	> 10000 nM
COCC(NC(=O)c1ccc2c(c1)c1cn(C)nc1n2-c1ccc(C(F)(F)F)cc1)c1ccc(C)o1 (centres unmarked) [Example B34, N-[2-methoxy-1-(5-methylfuran-2-yl)ethyl]-2-methyl-8-[4-(trifluoromethyl)phenyl]-2H,8H-pyrazolo[3,4-b]indole-5-carboxamide]	10 to 100 nM
Cn1cc2c3cc(C(=O)NCC4=CCOCC4)ccc3n(-c3ccc(C(F)(F)F)cc3)c2n1 [Example B58, N-[(3,6-dihydro-2H-pyran-4-yl)methyl]-2-methyl-8-[4-(trifluoromethyl)phenyl]-2H,8H-pyrazolo[3,4-b]indole-5-carboxamide]	1 to 10 nM
Cn1cc2c3cc(C(=O)N[C@@H]4[C@H](O)[C@@H]5CCC[C@@H]54)ccc3n(-c3ccc(C(F)(F)F)cc3)c2n1 (relative stereo) [Example B43, N-[(1R,5S,6S,7R)-7-hydroxy-bicyclo[3.2.0]heptan-6-yl]-2-methyl-8-[4-(trifluoromethyl)phenyl]-2H,8H-pyrazolo[3,4-b]indole-5-carboxamide]	100 to 10000 nM
Cn1cc2c3cc(C(=O)NC4CC(O)C45CCOCC5)ccc3n(-c3ccc(C(F)(F)F)cc3)c2n1 (centres unmarked) [Example B16, N-{3-hydroxy-7-oxaspiro[3.5]nonan-1-yl}-2-methyl-8-[4-(trifluoromethyl)phenyl]-2H,8H-pyrazolo[3,4-b]indole-5-carboxamide]	100 to 10000 nM
Cn1cc2c3cc(C(=O)N4CCC45CCCOCC5)ccc3n(-c3ccc(C(F)(F)F)cc3)c2n1 (centres unmarked) [B108^]	> 10000 nM
COc1cc(CN(C)C(=O)c2ccc3c(c2)c2cn(C)nc2n3-c2ccc(C(F)(F)F)cc2)sn1 [B136^]	> 10000 nM
CC(NC(=O)c1ccc2c(c1)c1cn(C)nc1n2-c1ccc(C(F)(F)F)cc1)C(C)N1CCOCC1 (centres unmarked) [Example B61, 2-methyl-N-[3-(morpholin-4-yl)butan-2-yl]-8-[4-(trifluoromethyl)phenyl]-2H,8H-pyrazolo[3,4-b]indole-5-carboxamide]	100 to 10000 nM
Cn1cc2c3cc(C(=O)NC4(C5CCCO5)CCC4)ccc3n(-c3ccc(C(F)(F)F)cc3)c2n1 (centres unmarked) [Example B81, 2-methyl-N-[1-(oxolan-2-yl)cyclobutyl]-8-[4-(trifluoromethyl)phenyl]-2H,8H-pyrazolo[3,4-b]indole-5-carboxamide]	100 to 10000 nM
Cc1nc(CNC(=O)c2ccc3c(c2)c2cn(C)nc2n3-c2ccc(C(F)(F)F)cc2)n[nH]1 [B144^]	10 to 100 nM
